# Reference: patent US20060264460A1 (Wyeth, priority 2005, published 2006)
# Molecular target: T1, human Cot/Tpl2 kinase (Homo sapiens, UniProt P41279)
# T1 construct: human Cot/Tpl2 kinase construct encoding residues 30-398; 6His (N); made in house; host or cells: Sf9 insect cells, baculovirus system (BD Biosciences)
# Assay: Tpl2/Cot kinase assay: GST-MEK1 phosphorylation detected by ELISA (DELFIA Eu)
# Assay type: biochemical
# Outline: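 His-tagged human Tpl2 from Sf9 cells, Ni-affinity and size-exclusion purified (monomer). 0.4 nM Tpl2 with 35 nM GST-MEK1, 50 uM ATP, MOPS pH 7.2, 1% DMSO, 1 h at 30° C; EDTA stop. MEK1 Ser217/221 phosphorylation detected by anti-phospho-MEK1 and Eu-labelled secondary ELISA; IC50 fitted.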
# [1] = Tpl2/Cot kinase, GST-MEK1 substrate, 50 uM ATP
# [2] = 0.4 nM Tpl2, 35 nM GST-MEK1, 50 uM ATP, 1 h at 30° C.
# [3] = Table 2, Tpl2/Cot kinase, GST-MEK1 substrate, 50 uM ATP
# [4] = Tpl2/Cot kinase, GST-MEK1 substrate, 50 uM ATP, 1 h at 30° C., Table 2
# T1 sequence (P41279 30-398): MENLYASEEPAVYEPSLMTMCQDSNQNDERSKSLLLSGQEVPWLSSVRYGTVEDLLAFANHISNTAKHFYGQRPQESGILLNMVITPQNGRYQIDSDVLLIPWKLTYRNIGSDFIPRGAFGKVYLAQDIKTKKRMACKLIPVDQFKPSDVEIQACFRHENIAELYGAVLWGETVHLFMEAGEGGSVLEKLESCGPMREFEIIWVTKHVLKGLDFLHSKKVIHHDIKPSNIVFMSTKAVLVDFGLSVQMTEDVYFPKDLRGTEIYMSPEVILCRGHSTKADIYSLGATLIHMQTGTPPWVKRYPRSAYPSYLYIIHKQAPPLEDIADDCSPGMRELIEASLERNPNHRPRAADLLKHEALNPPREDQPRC
IC50 [2] [nM],IC50 [3] [nM],Compound,other results
–,–,N#Cc1cnc2c(Cl)cc(NCC(=O)NCc3ccncc3)cc2c1Nc1ccc(F)c(Cl)c1 [Example 772],IC50 [1]: 48 nM
400,–,"CN(C)C(=O)c1cc(NCc2cccnc2)cc2c(Nc3cccc(Cl)c3)c(C#N)cnc12 [Example 71, 4-(3-chlorophenylamino)-3-cyano-N,N-dimethyl-6-(pyridin-3-ylmethylamino)quinoline-8-carboxamide]",–
310,–,"N#Cc1cnc2ccc(NC3CCCC3c3ccccn3)cc2c1Nc1ccc(F)c(Cl)c1 (stereo not shown) [Example 256, 4-[(3-chloro-4-fluorophenyl)amino]-6-[(2-pyridin-2-ylcyclopentyl)amino]quinoline-3-carbonitrile]",–
28,–,"N#Cc1cnc2c(Br)cc(NCc3cn(CCN4CCCC4)nn3)cc2c1Nc1ccc(F)c(Cl)c1 [Example 308, 8-Bromo-4-(3-chloro-4-fluoro-phenylamino)-6-{[1-(2-pyrrolidin-1-yl-ethyl)-1H-[1,2,3]triazol-4-ylmethyl]-amino}-quinoline-3-carbonitrile]",–
–,> 10000,N#Cc1cnc2ccc(NCCN3CCOCC3)cc2c1Nc1ccc2[nH]ccc2c1 [Example 356],–
–,91,CS(=O)(=O)CCn1cc(CNc2cc(Br)c3ncc(C#N)c(Nc4ccc(F)c(Cl)c4)c3c2)nn1 [Example 511],–
–,920,N#Cc1cnc2c(Cl)cc(N)cc2c1Nc1ccc(F)c(Cl)c1 [Example 409],–
–,–,CC(C)(C)CC(=O)N1CCN(CCn2cc(CNc3cc(Cl)c4ncc(C#N)c(Nc5ccc(F)c(Cl)c5)c4c3)nn2)CC1 [Example 960],IC50 [4]: 130 nM
–,4700,CN(CCn1cc(CN(Cc2cn(CCN(C)C(=O)OC(C)(C)C)nn2)c2cc(Br)c3ncc(C#N)c(Nc4ccc(F)c(Cl)c4)c3c2)nn1)C(=O)OC(C)(C)C [Example 501],–
–,–,N#Cc1cnc2c(Cl)cc(NCc3cn(CC(=O)Nc4cccnc4)nn3)cc2c1Nc1ccc(F)c(Cl)c1 [Example 821],IC50 [1]: 2.7 nM
–,21,COCCOCCn1cc(CNc2cc(Cl)c3ncc(C#N)c(Nc4ccc(F)c(Cl)c4)c3c2)nn1 [Example 564],–
–,1.8,CN(CCCn1cc(CNc2cc(Cl)c3ncc(C#N)c(Nc4ccc(F)c(Cl)c4)c3c2)nn1)C1CCCCC1 [Example 609],–
5300,–,"N#Cc1cnc2ccc(NCc3ccc(F)cc3)cc2c1Nc1ccc(F)c(Cl)c1 [Example 146, 6-(4-fluorobenzylamino)-4-(3-chloro-4-fluorophenylamino)quinoline-3-carbonitrile]",–
70,–,"CS(=O)(=O)NCCNc1cc(Cl)c2ncc(C#N)c(Nc3ccc(F)c(Cl)c3)c2c1 [Example 326, N-[2-({8-chloro-4-[(3-chloro-4-fluorophenyl)amino]-3-cyanoquinolin-6-yl}amino)ethyl]methanesulfonamide]",–
–,130,N#Cc1cnc2ccc(NCc3ccc[n+]([O-])c3)cc2c1Nc1ccc(F)c(Cl)c1 [Example 384],–
–,–,CCN1CCC(Cn2cc(CNc3cc(Br)c4ncc(C#N)c(Nc5ccc(F)c(Cl)c5)c4c3)nn2)CC1 [Example 735],IC50 [1]: 40 nM
–,36,N#Cc1cnc2c(Br)cc(NCc3cccnc3)cc2c1Nc1cccc(Cl)c1 [Example 374],–
–,48,N#Cc1cnc2c(Cl)cc(NCc3cn(CC4CCCNC4)nn3)cc2c1Nc1ccc(F)c(Cl)c1 (stereo not shown) [Example 546],–
–,–,CCN1CCC(CCn2cc(CNc3cc(Br)c4ncc(C#N)c(Nc5ccc(F)c(Cl)c5)c4c3)nn2)CC1 [Example 737],IC50 [1]: 64 nM
230,–,"N#Cc1cnc2c(Br)cc(NCc3cnc[nH]3)cc2c1NC1CCCCCC1 [Example 97, 6-((1H-imidazol-5-yl)methylamino)-8-bromo-4-(cycloheptylamino)quinoline-3-carbonitrile]",–

IC50 [2] [nM],IC50 [3] [nM],Compound,other results
–,> 40000,Cn1nc(C(C)(C)C)cc1Nc1c(C#N)cnc2ccc(N)cc12 [Example 425],–
–,–,CN(C)C(=O)OCCCn1cc(CNc2cc(Cl)c3ncc(C#N)c(Nc4ccc(F)c(Cl)c4)c3c2)nn1 [Example 750],IC50 [1]: 16 nM
–,–,CC(C)N1CCC(c2cncc(CNc3cc(Cl)c4ncc(C#N)c(Nc5ccc(F)c(Cl)c5)c4c3)c2)CC1 [Example 1061],IC50 [4]: 600 nM
10,–,"Cc1c(CNc2cc(Br)c3ncc(C#N)c(Nc4ccc(F)c(Cl)c4)c3c2)ncn1C [Example 113, 8-bromo-4-(3-chloro-4-fluorophenylamino)-6-((1,5-dimethyl-1H-imidazol-4-yl)methylamino)quinoline-3-carbonitrile]",–
–,230,N#Cc1cnc2c(Br)cc(NCc3cn(C4CCCC4)cn3)cc2c1Nc1ccc(F)c(Cl)c1 [Example 632],–
640,–,"CCc1nc(C)c(CNc2ccc3ncc(C#N)c(Nc4ccc(F)c(Cl)c4)c3c2)[nH]1 [Example 23, 4-(3-Chloro-4-fluoro-phenylamino)-6-[(2-ethyl-5-methyl-3H-imidazol-4-ylmethyl)-amino]-quinoline-3-carbonitrile]",–
–,–,CC(C)(C)OC(=O)N1CCC(Nc2ccc3ncc(C#N)c(Nc4ccc(F)c(Cl)c4)c3c2)CC1 [Example 656],IC50 [1]: > 40000 nM
–,–,N#Cc1cnc2c(Cl)cc(NCC(=O)Nc3cccnc3)cc2c1Nc1ccc(F)c(Cl)c1 [Example 773],IC50 [1]: 110 nM
26800,–,CC(C)(C)OC(=O)COc1ccc(Br)cc1CNc1ccc2ncc(C#N)c(Nc3ccc(F)c(Cl)c3)c2c1 [Example 42],–
–,35,CC(=O)Nc1ccc(-n2cc(CNc3cc(Cl)c4ncc(C#N)c(Nc5ccc(F)c(Cl)c5)c4c3)nn2)cc1 [Example 634],–
> 40000,–,"CN(C)C(=O)c1cc(NCc2ccco2)cc2c(Nc3ccc(F)c(Cl)c3)c(C#N)cnc12 [Example 84, 4-(3-chloro-4-fluorophenylamino)-3-cyano-6-(furan-2-ylmethylamino)-N,N-dimethylquinoline-8-carboxamide]",–
570,–,"N#Cc1cnc2c(I)cc(NCc3cccnc3)cc2c1Nc1cccc(Cl)c1 [Example 79, 4-(3-chlorophenylamino)-8-iodo-6-(pyridin-3-ylmethylamino)quinoline-3-carbonitrile]",–
–,33,N#Cc1cnc2c(Br)cc(NCc3cn(CC4CCCNC4)nn3)cc2c1Nc1ccc(F)c(Cl)c1 (stereo not shown) [Example 545],–
–,–,N#Cc1cnc2c(Br)cc(NCc3cnc4ccccn34)cc2c1Nc1ccc(F)c(Cl)c1 [Example 701],IC50 [1]: 280 nM
–,–,N#Cc1cnc2c(Br)cc(NCc3cn(C45CC6CC(CC(C6)C4)C5)nn3)cc2c1Nc1ccc(F)c(Cl)c1 [Example 661],IC50 [1]: 1700 nM
–,> 3000,CCN(C[C@@H]1CCCN1)c1cc(Cl)c2ncc(C#N)c(Nc3ccc(F)c(Cl)c3)c2c1 [Example 640],–
–,> 3000,Fc1ccc(Nc2ncncc2-c2ccccc2NCc2cnc[nH]2)cc1Cl [Example 536],–
> 40000,–,"N#Cc1cnc2c(C(=O)NCc3ccccc3)cc(NCc3cccnc3)cc2c1Nc1cccc(Cl)c1 [Example 80, N-benzyl-4-(3-chlorophenylamino)-3-cyano-6-(pyridin-3-ylmethylamino)quinoline-8-carboxamide]",–
–,1700,N#Cc1cnc2c(Br)cc(NCc3cn(C45CC6CC(CC(C6)C4)C5)nn3)cc2c1Nc1ccc(F)c(Cl)c1 [Example 479],–
> 40000,–,"N#Cc1cnc2c(C(F)(F)F)cc(NCc3cccnc3)cc2c1Nc1ccc(F)c(Cl)c1 [Example 230, 4-[(3-chloro-4-fluorophenyl)amino]-6-[(pyridin-3-ylmethyl)amino]-8-(trifluoromethyl)quinoline-3-carbonitrile]",–
